Measured values published in patent publication US20250000849A1, “COMPOSITE COMPOSITION CONTAINING ANGIOTENSIN RECEPTOR BLOCKER AND SGLT2 INHIBITOR” (MEDITAKE CO., LTD., priority 2021, published 2025).

Assays:
Type in all cases: in vivo
Set-up in all cases: unit not given here
[1] = system: spontaneously hypertensive rat (SHR); experiment: Blood pressure-lowering effect of combined administration of angiotensin receptor blocker and dapagliflozin in SHR; settings: Dapagliflozin 1 mg/kg/day
Protocol: (§1) The animals were housed in a room with a temperature of […] relative humidity of 50±10%, and a 12-hour light/dark cycle, and food and water were provided ad libitum.
(§2) All data are expressed as mean±S.E.M. Blood pressure measurements were schematized using GraphPad Prism 9 (GraphPad Software Inc., San Diego, CA).
Blood pressure was measured daily immediately before (0 hr) and 4 hours after (4 hr) dosing while administering the drug for a total of 19 days, and the recovery of blood pressure was monitored during a 1-week recovery period after the end of administration.

[2] = system: spontaneously hypertensive rat (SHR); experiment: Blood pressure-lowering effect of combined administration of angiotensin receptor blocker and empagliflozin in SHR; settings: Empagliflozin 1 mg/kg/day, Day 14 (4 h)
[3] = system: spontaneously hypertensive rat (SHR); experiment: as above; settings: Empagliflozin 1 mg/kg/day
Protocol: as §1, §2
Blood pressure was measured daily immediately before (0 hr) and 4 hours after (4 hr) dosing while administering the drug for a total of 19 days, and the recovery of blood pressure was monitored during a 1-week recovery period after the end of administration. Specifically, the animals were divided into two groups to evaluate the blood pressure response when fimasartan (Group 1) or dapagliflozin (Group 2) was administered alone, and to evaluate the blood pressure response to the addition of the other drugs in sequentially increasing doses, and the results are shown in FIG. 2.
The experiments were conducted in the same manner as in Example 3 above, but using empagliflozin as an SGLT2 inhibitor.
The angiotensin receptor blockers, fimasartan, azilsartan, and olmesartan were divided by dose, and each administered alone or in combination with empagliflozin, and the results of blood pressure measurements in each experimental group are shown in Table 4 and FIGS. 7 to 9 below.

| SMILES | Blood pressure, Mean ([1]; Day 1 (pre-dose)) | Blood pressure, Mean ([1]; Day 7 (4 h)) | Blood pressure, Mean ([1]; Day 14 (4 h)) | Blood pressure, Mean ([1]; Recovery) | Blood pressure, Mean [2] | Blood pressure, Mean ([3]; Day 1 (pre-dose)) | Blood pressure, Mean ([3]; Day 7 (4 h)) | Blood pressure, Mean ([3]; Recovery) |
| --- | --- | --- | --- | --- | --- | --- | --- | --- |
| CCOc1ccc(Cc2cc([C@@H]3O[C@H](CO)[C@@H](O)[C@H](O)[C@H]3O)ccc2Cl)cc1 [Dapagliflozin, dapagliflozin] | 100.0 | 101.2 | 96.5 | 105.5 | – | – | – | – |
| OC[C@H]1O[C@@H](c2ccc(Cl)c(Cc3ccc(O[C@H]4CCOC4)cc3)c2)[C@H](O)[C@@H](O)[C@@H]1O [Empagliflozin, empagliflozin] | – | – | – | – | 96.4 | 100.0 | 97.1 | 101.8 |
